The structures appear in SMILES notation.

The text below walks through data of US8399663B2, “Salt of 1,3,5-triazine-2,4,6-triamine derivative” (Astellas Pharma Inc., priority 2009, dated 2013).

The subject of series [1] is methamphetamine-induced hyperlocomotion. The experiment in a line: Methamphetamine-induced hyperlocomotion model (animal model of Schizophrenia). As to conditions: oral administration to male ddY mice. The format is in vivo, male ddY mouse. The protocol:
Methamphetamine is a psychostimulant, and is known to cause symptoms that are similar to Schizophrenia by increasing the transmission in the dopaminergic neurons. The abnormal behavior produced when methamphetamine is administered to an animal is generally used as a screening method for a therapeutic drug for Schizophrenia (Oka et al., 1993, J. Pharmacol. Exp. Ther., 264:158-165, herein incorporated by reference). That is, a male ddY mouse was placed in an activity monitoring apparatus, and after 30 min, methamphetamine was administered. Immediately after administering methamphetamine, the mouse was returned to the monitoring apparatus, and the activity for 1 hour from immediately after the return was measured. For the measurement of the activity, a Supermex sensor manufactured by Muromachi Kikai Co., Ltd. was used. A solvent, or a diluted solution obtained by diluting each of the test compounds with a solvent at multiple concentrations was orally administered to mice in a group. As the solvent, a 0.5% aqueous methyl cellulose solution was used. The statistical analysis was carried out between the group administered with the solvent and the group administered with the drug, using a Dunnett's test.

Series [2] in a line: pKa value of the compound. The series is classed as physicochemical.

`Fc1ccc(Nc2nc(NCc3ncccn3)nc(Nc3ccc(F)cc3)n2)cc1` [compound B, N,N′-bis(4-fluorophenyl)-N″-(pyrimidin-2-ylmethyl)-1,3,5-triazine-2,4,6-triamine]: the “methamphetamine-induced hyperlocomotion inhibitory action” value in series [1] is “inhibited the methamphetamine-induced hyperlocomotion”.
For `Fc1ccc(Nc2nc(NCc3ncccn3)nc(Nc3ccccc3)n2)cc1` [compound A, N-(4-fluorophenyl)-N′-phenyl-N″-(pyrimidin-2-ylmethyl)-1,3,5-triazine-2,4,6-triamine], in series [2], the pKa (commonly the pH at which an ionisable group is half protonated) came to 3.9. Further, in series [1], the “methamphetamine-induced hyperlocomotion inhibitory action” value is “inhibited the methamphetamine-induced hyperlocomotion”.
